In ChEMBL document CHEMBL1201862, “PubChem BioAssay data set” (2004):
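Where inhibition never reached the appropriate level, the endpoint shown equals the highest concentration tested. Otherwise, values were interpolated linearly from a five-concentration, 48-hour dose response in 96-well plates. GI50 marks 50% less growth.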 Active and inactive are the calls of the source. No stated cut-off is given here; in the data, active = GI50 up to about 1.1 µM and inactive = higher.

Legend:
Assay in all cases: NCI anticancer screen, dose series, 48 h
[1] = tested on: RXF 393
[2] = tested on: MOLT-4
[3] = tested on: SK-MEL-5
[4] = tested on: SK-MEL-2
[5] = tested on: UO-31
[6] = tested on: UACC-257
[7] = tested on: RPMI-8226
[8] = tested on: OVCAR-5
[9] = tested on: Hs-578T
[10] = tested on: OVCAR-4
[11] = tested on: HOP-62
[12] = tested on: SR
[13] = tested on: MDA-MB-435
[14] = tested on: HT-29
[15] = tested on: IGROV-1
[16] = tested on: SNB-75
[17] = tested on: HCT-116
[18] = tested on: SK-MEL-28
[19] = tested on: TK-10
[20] = tested on: U-251

SMILES	GI50 [1]	GI50 [2]	GI50 [3]	GI50 [4]	GI50 [5]	GI50 [6]	GI50 [7]	GI50 [8]	GI50 [9]	GI50 [10]	GI50 [11]	GI50 [12]	GI50 [13]	GI50 [14]	GI50 [15]	GI50 [16]	GI50 [17]	GI50 [18]	GI50 [19]	GI50 [20]
Cn1nc(-c2ccccc2)c2c(-c3ccccc3)c3cc(Cl)ccc3nc21	> 100 µM (inactive)	15.8 µM (inactive)	> 100 µM (inactive)	> 100 µM (inactive)	> 100 µM (inactive)	> 100 µM (inactive)	> 100 µM (inactive)	> 100 µM (inactive)	> 76.4 µM (inactive)	> 100 µM (inactive)	> 100 µM (inactive)	> 100 µM (inactive)	> 100 µM (inactive)	49.3 µM (inactive)	> 100 µM (inactive)	> 100 µM (inactive)	41.3 µM (inactive)	> 100 µM (inactive)	> 100 µM (inactive)	> 100 µM (inactive)
CCOC(=O)/C(=C\NCC(OCC)OCC)c1nc2ccccc2[nH]1	35.3 µM (inactive)	17.1 µM (inactive)	14.5 µM (inactive)	22.3 µM (inactive)	13.3 µM (inactive)	25.1 µM (inactive)	18.7 µM (inactive)	48.6 µM (inactive)	35.6 µM (inactive)	31.9 µM (inactive)	31.8 µM (inactive)	18.6 µM (inactive)	25 µM (inactive)	22.4 µM (inactive)	29 µM (inactive)	22.2 µM (inactive)	29.6 µM (inactive)	26.8 µM (inactive)	31.3 µM (inactive)	35.5 µM (inactive)
N#Cc1ccc(-n2c3ccccc3c3ccc4c(c32)C(=O)C=CC4=O)cc1	2.39 µM (inactive)	0.348 µM (active)	5.02 µM (inactive)	8.87 µM (inactive)	1.45 µM (inactive)	4.67 µM (inactive)	3.72 µM (inactive)	17.8 µM (inactive)	4.16 µM (inactive)	3.78 µM (inactive)	15.3 µM (inactive)	1.46 µM (inactive)	2.01 µM (inactive)	1.66 µM (inactive)	5.25 µM (inactive)	18.2 µM (inactive)	2.42 µM (inactive)	2.88 µM (inactive)	3.4 µM (inactive)	4.56 µM (inactive)
CC(=O)OC1CCn2c1nc1c2C(=O)C=C(N2CC2)C1=O (centres undefined)	0.0748 µM (active)	0.033 µM (active)	0.142 µM (active)	0.2 µM (active)	0.103 µM (active)	0.292 µM (active)	0.251 µM (active)	0.774 µM (active)	0.524 µM (active)	0.0746 µM (active)	2.11 µM (inactive)	0.0953 µM (active)	0.476 µM (active)	0.693 µM (active)	0.449 µM (active)	0.174 µM (active)	0.153 µM (active)	0.0314 µM (active)	0.292 µM (active)	0.218 µM (active)
COC(=O)C1=C(O)C(C(=O)OC)[C@]2(O)[C@H](C(=O)OC)[C@H]1C[C@@H](c1ccc(OC)cc1)[C@H]2C(=O)OC (some centres undefined)	16 µM (inactive)	10.2 µM (inactive)	13.7 µM (inactive)	19.8 µM (inactive)	11.3 µM (inactive)	24.7 µM (inactive)	12.4 µM (inactive)	20.7 µM (inactive)	19.9 µM (inactive)	19.8 µM (inactive)	29.9 µM (inactive)	16.1 µM (inactive)	5.97 µM (inactive)	29.8 µM (inactive)	34.6 µM (inactive)	27.9 µM (inactive)	16.3 µM (inactive)	30.4 µM (inactive)	34.3 µM (inactive)	24.5 µM (inactive)
O=C(Nc1nnc(-c2ccc(Cl)cc2)o1)C(SC(=S)N1CCOCC1)c1ccccc1 (centres undefined)	26.9 µM (inactive)	4.38 µM (inactive)	12.4 µM (inactive)	14.7 µM (inactive)	4.97 µM (inactive)	33 µM (inactive)	9.48 µM (inactive)	34.8 µM (inactive)	46.2 µM (inactive)	20.2 µM (inactive)	16.6 µM (inactive)	8.09 µM (inactive)	17.6 µM (inactive)	18.8 µM (inactive)	19.6 µM (inactive)	26.4 µM (inactive)	10.2 µM (inactive)	23.2 µM (inactive)	44.3 µM (inactive)	12.5 µM (inactive)
Cc1cc(C)cc(Nc2nnc3n2S(=O)(=O)c2cc(C)c(Cl)cc2S3)c1	3.03 µM (inactive)	3.08 µM (inactive)	5.92 µM (inactive)	2.7 µM (inactive)	7.14 µM (inactive)	4.35 µM (inactive)	2.88 µM (inactive)	5.35 µM (inactive)	2.94 µM (inactive)	8.69 µM (inactive)	7.31 µM (inactive)	2.09 µM (inactive)	6.03 µM (inactive)	7.26 µM (inactive)	5.43 µM (inactive)	3.87 µM (inactive)	3.48 µM (inactive)	17.6 µM (inactive)	10.7 µM (inactive)	3.24 µM (inactive)
COC(=O)c1ccc2c(c1)CC1(C2)Cc2cc3c(cc2C1)CCC3	> 100 µM (inactive)	> 100 µM (inactive)	> 100 µM (inactive)	98.2 µM (inactive)	> 100 µM (inactive)	> 100 µM (inactive)	> 100 µM (inactive)	> 100 µM (inactive)	> 100 µM (inactive)	> 100 µM (inactive)	> 100 µM (inactive)	> 100 µM (inactive)	> 100 µM (inactive)	> 100 µM (inactive)	> 100 µM (inactive)	> 100 µM (inactive)	> 100 µM (inactive)	> 100 µM (inactive)	> 100 µM (inactive)	49.3 µM (inactive)
CCC1=CC(OCc2ccccc2)C(CCN(Cc2ccccc2)C(=O)OCc2ccccc2)C1 (centres undefined)	3.5 µM (inactive)	10.2 µM (inactive)	15.4 µM (inactive)	20.2 µM (inactive)	14.6 µM (inactive)	13.9 µM (inactive)	8.59 µM (inactive)	13.5 µM (inactive)	11.5 µM (inactive)	13.7 µM (inactive)	16.5 µM (inactive)	17.3 µM (inactive)	17.1 µM (inactive)	17.9 µM (inactive)	15.6 µM (inactive)	10.3 µM (inactive)		20.7 µM (inactive)	16.5 µM (inactive)	19.8 µM (inactive)
O=C(c1ccccc1)c1c(C(F)(F)F)[n+]([O-])c2ccccc2[n+]1[O-]	1.46 µM (inactive)	0.129 µM (active)	1.87 µM (inactive)	1.5 µM (inactive)	0.879 µM (active)	1.84 µM (inactive)	0.237 µM (active)	1.31 µM (inactive)	3.15 µM (inactive)	0.302 µM (active)	1.08 µM (active)	0.0738 µM (active)	0.798 µM (active)	0.687 µM (active)	0.188 µM (active)	1.26 µM (inactive)	0.977 µM (active)	1.91 µM (inactive)	1.64 µM (inactive)	1.16 µM (inactive)
COc1ccc2nc3cc(Cl)ccc3c(NCCNC(=O)Cn3c(=O)n(C)c(=O)c4c3nc3c(c(=O)n(C)c(=O)n3C)[n+]4[O-])c2c1	42.1 µM (inactive)	22.9 µM (inactive)	58.2 µM (inactive)	35.2 µM (inactive)	> 100 µM (inactive)	32.7 µM (inactive)	> 80.9 µM (inactive)	> 72.8 µM (inactive)	20.3 µM (inactive)	> 64.7 µM (inactive)	20.7 µM (inactive)	18.5 µM (inactive)	> 45.7 µM (inactive)	24.2 µM (inactive)	19.1 µM (inactive)	33.9 µM (inactive)	35.2 µM (inactive)	> 31.6 µM (inactive)	29 µM (inactive)	21 µM (inactive)
Cn1cc(-c2n[nH]c(-c3ccc(Cl)cc3)nc2=O)c2ccccc21	2.4 µM (inactive)	1.6 µM (inactive)	1.35 µM (inactive)	3.4 µM (inactive)	1.06 µM (active)	7.53 µM (inactive)	3.23 µM (inactive)	4.34 µM (inactive)	2.76 µM (inactive)	15.1 µM (inactive)	5.36 µM (inactive)	0.774 µM (active)	0.184 µM (active)	2.19 µM (inactive)	4.58 µM (inactive)	3.11 µM (inactive)	2.12 µM (inactive)	> 71.1 µM (inactive)	11.8 µM (inactive)	2.31 µM (inactive)
CCOc1ccnc2c(OC)c(C)c3nc4ccccc4nc3c12	8.39 µM (inactive)	82.6 µM (inactive)	> 100 µM (inactive)	> 100 µM (inactive)	> 100 µM (inactive)	> 100 µM (inactive)	> 100 µM (inactive)	> 100 µM (inactive)	> 100 µM (inactive)	> 100 µM (inactive)	> 100 µM (inactive)	18.6 µM (inactive)	> 100 µM (inactive)	72.8 µM (inactive)	52.1 µM (inactive)	25.3 µM (inactive)	> 100 µM (inactive)	> 100 µM (inactive)	> 100 µM (inactive)	> 100 µM (inactive)
CC(C)(C)c1cc(OCc2nnc3sc(-c4ccc(Cl)cc4)nn23)c(Cl)cc1OCc1nnc2sc(-c3ccc(Cl)cc3)nn12	2.81 µM (inactive)	4.93 µM (inactive)	0.726 µM (active)	7.91 µM (inactive)	10.3 µM (inactive)	11.5 µM (inactive)	3.56 µM (inactive)	29.7 µM (inactive)	5.7 µM (inactive)	3.98 µM (inactive)	5.87 µM (inactive)	0.315 µM (active)	0.478 µM (active)	30.8 µM (inactive)	3.82 µM (inactive)	2.19 µM (inactive)	3.54 µM (inactive)	3.89 µM (inactive)	8.47 µM (inactive)	5.79 µM (inactive)
